# Data from BindingDB's records for patent US11912686 (Gilead Sciences, 2024).
# Target: Lysophosphatidic acid receptor 1 (Homo sapiens, UniProt Q92633)
# Test: Calcium Mobilization Assay
# Method: For agonist dose curves, cells were removed from the incubator 2 hours after dye loading and transferred to the FLIPR Tetra instrument (Molecular Devices, San Jose, CA). […] After dye loading, cells were removed from the incubator and 0.3 μL of 200× antagonist was added. Cells were incubated for 60 minutes at 37° C. Antagonist activity was measured on a FLIPR Tetra. Calcium mobilization was monitored for 3.5 minutes and 10 μL 6× EC80 LPA in HBSS, 20 mM HEPES, and 0.1% BSA was added to the cells 5 seconds into the assay. Signal amplitude (Maximum minus minimum) values were plotted against log10 of antagonist concentration using Dose Response T
# Chain of Lysophosphatidic acid receptor 1 (Q92633 whole entry): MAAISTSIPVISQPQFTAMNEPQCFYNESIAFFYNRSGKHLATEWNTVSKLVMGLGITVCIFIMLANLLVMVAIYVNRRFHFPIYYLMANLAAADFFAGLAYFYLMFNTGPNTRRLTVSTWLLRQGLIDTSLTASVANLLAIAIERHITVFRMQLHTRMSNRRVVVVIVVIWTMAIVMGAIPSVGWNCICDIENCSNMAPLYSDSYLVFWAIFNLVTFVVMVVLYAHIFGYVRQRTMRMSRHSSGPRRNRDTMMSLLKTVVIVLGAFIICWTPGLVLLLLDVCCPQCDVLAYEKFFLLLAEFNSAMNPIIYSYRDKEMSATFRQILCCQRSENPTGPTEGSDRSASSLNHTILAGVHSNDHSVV
row,SMILES,EC50 [µM]
1,"C[C@@H](OC(=O)Nc1c(-c2ccc(NC(=O)[C@H]3C[C@@](F)(C#N)C3)cn2)nnn1C)c1cccnc1Cl [US11912686, Compound 185]",1.7
2,"C[C@@H](OC(=O)Nc1c(-c2ccc(NC(=O)N3CCOCC3)cn2)nnn1C)c1cccnc1Cl [US11912686, Compound 189]",0.989
3,"CCNC(=O)Nc1ccc(-c2nnn(C)c2NC(=O)O[C@H](C)c2cccnc2Cl)cn1 [US11912686, Compound 4]",≥ 10
